Data taken from ChEMBL document CHEMBL1201861, “Genomics of Drug Sensitity in Cancer screening data, Wellcome Trust Sanger Institute”.

Tests used:
Assay in all cases: cells
Conditions in all cases: Homo sapiens
RH-1 = type: functional, cell-based;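 note: growth inhibition of human RH-1 cells, read out with a cell viability assay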
Description: SANGER: Inhibition of human RH-1 cell growth in a cell viability assay.

NCI-H23 = type: functional, cell-based;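 note: cell viability assay measuring growth inhibition of NCI-H23 cells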
Description: SANGER: Inhibition of human NCI-H23 cell growth in a cell viability assay.

COLO-668 = type: functional, cell-based
Description: SANGER: Inhibition of human COLO-668 cell growth in a cell viability assay.

LAMA-84 = type: functional, cell-based;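 note: growth inhibition of LAMA-84 cells, read out with a cell viability assay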
Description: SANGER: Inhibition of human LAMA-84 cell growth in a cell viability assay.

ATN-1 = type: functional, cell-based;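 note: growth inhibition of human ATN-1 cells, read out with a cell viability assay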
Description: SANGER: Inhibition of human ATN-1 cell growth in a cell viability assay.

SH-4 = type: functional, cell-based;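 note: growth inhibition of SH-4 cells, read out with a cell viability assay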
Description: SANGER: Inhibition of human SH-4 cell growth in a cell viability assay.

A704 = type: functional, cell-based;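 note: growth inhibition of human A704 cells, read out with a cell viability assay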
Description: SANGER: Inhibition of human A704 cell growth in a cell viability assay.

SW872 = type: functional, cell-based;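 note: growth inhibition of SW872 cells, read out by a viability assay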
Description: SANGER: Inhibition of human SW872 cell growth in a cell viability assay.

MHH-NB-11 = type: functional, cell-based;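 note: growth inhibition of human MHH-NB-11 cells, read out by a cell viability assay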
Description: SANGER: Inhibition of human MHH-NB-11 cell growth in a cell viability assay.

SNU1 = type: functional, cell-based;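 note: growth inhibition of human NCI-SNU-1 cells, measured with a cell viability assay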
Description: SANGER: Inhibition of human NCI-SNU-1 cell growth in a cell viability assay.

COR-L88 = type: functional, cell-based;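 note: growth inhibition of COR-L88 cells, read out with a cell viability assay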
Description: SANGER: Inhibition of human COR-L88 cell growth in a cell viability assay.

HDLM-2 = type: functional, cell-based;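 note: cell viability assay measuring suppression of HDLM-2 proliferation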
Description: SANGER: Inhibition of human HDLM-2 cell growth in a cell viability assay.

QIMR-WIL = type: functional, cell-based;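 note: growth inhibition of QIMR-WIL cells, read out with a cell viability assay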
Description: SANGER: Inhibition of human QIMR-WIL cell growth in a cell viability assay.

ES8 = type: functional, cell-based;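 note: growth inhibition of human ES8 cells, read out with a cell viability assay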
Description: SANGER: Inhibition of human ES8 cell growth in a cell viability assay.

EW-3 = type: functional, cell-based;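 note: cell viability assay read-out, IC50 reflects inhibition of growth of the EW-3 cells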
Description: SANGER: Inhibition of human EW-3 cell growth in a cell viability assay.

HEL = type: functional, cell-based;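 note: growth inhibition of HEL cells, read out with a cell viability assay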
Description: SANGER: Inhibition of human HEL cell growth in a cell viability assay.

IST-MEL1 = type: functional, cell-based;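 note: growth inhibition of the cell line, read out with a cell viability assay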
Description: SANGER: Inhibition of human IST-MEL1 cell growth in a cell viability assay.

COLO-824 = type: functional, cell-based
Description: SANGER: Inhibition of human COLO-824 cell growth in a cell viability assay.

ES6 = type: functional, cell-based;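 note: growth inhibition of human ES6 cells, read out with a cell viability assay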
Description: SANGER: Inhibition of human ES6 cell growth in a cell viability assay.

AM-38 = type: functional, cell-based;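 note: growth inhibition of AM-38 cells of human origin, read out by a cell viability assay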
Description: SANGER: Inhibition of human AM-38 cell growth in a cell viability assay.

TGBC1TKB = type: functional, cell-based;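 note: growth inhibition of TGBC1TKB cells, read out by a cell viability assay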
Description: SANGER: Inhibition of human TGBC1TKB cell growth in a cell viability assay.

no-10 = type: functional, cell-based;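 note: growth inhibition of no-10 cells, read out with a cell viability assay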
Description: SANGER: Inhibition of human no-10 cell growth in a cell viability assay.

DOHH-2 = type: functional, cell-based;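 note: growth inhibition of human DOHH-2 cells, read out with a cell viability assay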
Description: SANGER: Inhibition of human DOHH-2 cell growth in a cell viability assay.

SHP77 = type: functional, cell-based, SHP-77;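 note: growth inhibition of human SHP-77 cells measured by a cell viability assay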
Description: SANGER: Inhibition of human SHP-77 cell growth in a cell viability assay.

HD-MY-Z = type: functional, cell-based;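 note: growth inhibition of HD-MY-Z cells, read out with a cell viability assay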
Description: SANGER: Inhibition of human HD-MY-Z cell growth in a cell viability assay.

KE-37 = type: functional, cell-based;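 note: growth inhibition of KE-37 cells, read out with a cell viability assay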
Description: SANGER: Inhibition of human KE-37 cell growth in a cell viability assay.

KNS-81-FD = type: functional, cell-based;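 note: growth inhibition of KNS-81-FD cells, read out with a cell viability assay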
Description: SANGER: Inhibition of human KNS-81-FD cell growth in a cell viability assay.

TE-1 = type: functional, cell-based
Description: SANGER: Inhibition of human TE-1 cell growth in a cell viability assay.

NEC8 = type: functional, cell-based;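 note: growth inhibition of human NEC8 cells, read out by a cell viability assay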
Description: SANGER: Inhibition of human NEC8 cell growth in a cell viability assay.

KU812 cell line = type: functional, cell-based;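 note: growth inhibition of KU812 cells, read out with a cell viability assay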
Description: SANGER: Inhibition of human KU812 cell growth in a cell viability assay.

EW-13 = type: functional, cell-based;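 note: growth inhibition of EW-13 cells, read out with a cell viability assay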
Description: SANGER: Inhibition of human EW-13 cell growth in a cell viability assay.

NCI-H747 = type: functional, cell-based;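 note: growth inhibition of human NCI-H747 cells, read out by a cell viability assay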
Description: SANGER: Inhibition of human NCI-H747 cell growth in a cell viability assay.

HCC2218 = type: functional, cell-based;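 note: cell viability assay read-out, with IC50 given as the concentration that inhibits growth of the cell line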
Description: SANGER: Inhibition of human HCC2218 cell growth in a cell viability assay.

ETK-1 = type: functional, cell-based;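 note: growth inhibition of human ETK-1 cells, read out with a cell viability assay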
Description: SANGER: Inhibition of human ETK-1 cell growth in a cell viability assay.

SCH = type: functional, cell-based;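 note: growth inhibition of human SCH cells, read out in a cell viability assay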
Description: SANGER: Inhibition of human SCH cell growth in a cell viability assay.

COLO-800 = type: functional, cell-based;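 note: growth inhibition of COLO-800 cells, read out with a cell viability assay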
Description: SANGER: Inhibition of human COLO-800 cell growth in a cell viability assay.

D-263MG = type: functional, cell-based
Description: SANGER: Inhibition of human D-263MG cell growth in a cell viability assay.

TE-12 = type: functional, cell-based;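 note: growth inhibition of TE-12 cells, read out by a cell viability assay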
Description: SANGER: Inhibition of human TE-12 cell growth in a cell viability assay.

K5 = type: functional, cell-based
Description: SANGER: Inhibition of human K5 cell growth in a cell viability assay.

A498 = type: functional, cell-based;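 note: growth inhibition of human A498 cells, read out with a cell viability assay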
Description: SANGER: Inhibition of human A498 cell growth in a cell viability assay.

J-RT3-T3-5 = type: functional, cell-based;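 note: cell viability assay measuring growth inhibition of human J-RT3-T3-5 cells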
Description: SANGER: Inhibition of human J-RT3-T3-5 cell growth in a cell viability assay.

Lu-65 = type: functional, cell-based;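 note: growth inhibition of Lu-65 cancer cells, read out by a cell viability assay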
Description: SANGER: Inhibition of human LU-65 cell growth in a cell viability assay.

no-11 = type: functional, cell-based;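 note: growth inhibition of human NO-11 cells, read out with a cell viability assay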
Description: SANGER: Inhibition of human no-11 cell growth in a cell viability assay.

IST-MES1 = type: functional, cell-based;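 note: growth inhibition of IST-MES1 cells, measured with a cell viability assay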
Description: SANGER: Inhibition of human IST-MES1 cell growth in a cell viability assay.

HAL-01 = type: functional, cell-based;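 note: growth inhibition of human HAL-01 cells, read out with a cell viability assay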
Description: SANGER: Inhibition of human HAL-01 cell growth in a cell viability assay.

SW684 = type: functional, cell-based;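 note: growth inhibition of human SW684 cells, measured by a cell viability assay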
Description: SANGER: Inhibition of human SW684 cell growth in a cell viability assay.

EKVX = type: functional, cell-based;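 note: growth inhibition of human EKVX cells, read out with a cell viability assay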
Description: SANGER: Inhibition of human EKVX cell growth in a cell viability assay.

TE-5 = type: functional, cell-based;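 note: inhibition of cell growth, read out by a cell viability assay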
Description: SANGER: Inhibition of human TE-5 cell growth in a cell viability assay.

NCI-H69 = type: functional, cell-based;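 note: growth inhibition of the cell line, read out with a cell viability assay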
Description: SANGER: Inhibition of human NCI-H69 cell growth in a cell viability assay.

U-87 MG = type: functional, cell-based, U-87MG ATCC;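 note: growth inhibition of the cells measured with a viability assay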
Description: SANGER: Inhibition of human U-87-MG cell growth in a cell viability assay.

SK-MEL-2 = type: functional, cell-based;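 note: growth inhibition of human SK-MEL-2 cells measured with a cell viability assay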
Description: SANGER: Inhibition of human SK-MEL-2 cell growth in a cell viability assay.

SF-126 = type: functional, cell-based;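 note: growth inhibition of human SF126 cells, read out with a cell viability assay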
Description: SANGER: Inhibition of human SF126 cell growth in a cell viability assay.

EW-16 = type: functional, cell-based;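 note: growth inhibition of human EW-16 cells, read out as cell viability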
Description: SANGER: Inhibition of human EW-16 cell growth in a cell viability assay.

GI-1 = type: functional, cell-based;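 note: growth inhibition of human GI-1 cells, measured with a cell viability readout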
Description: SANGER: Inhibition of human GI-1 cell growth in a cell viability assay.

NOS-1 = type: functional, cell-based;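 note: growth inhibition of the human NOS-1 cell line, read out with a cell viability assay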
Description: SANGER: Inhibition of human NOS-1 cell growth in a cell viability assay.

GAK = type: functional, cell-based
Description: SANGER: Inhibition of human GAK cell growth in a cell viability assay.

SBC-1 = type: functional, cell-based
Description: SANGER: Inhibition of human SBC-1 cell growth in a cell viability assay.

KM-H2 = type: functional, cell-based
Description: SANGER: Inhibition of human KM-H2 cell growth in a cell viability assay.

SW 954 = type: functional, cell-based
Description: SANGER: Inhibition of human SW954 cell growth in a cell viability assay.

C2BBe1 = type: functional, cell-based
Description: SANGER: Inhibition of human C2BBe1 cell growth in a cell viability assay.

EW-11 = type: functional, cell-based
Description: SANGER: Inhibition of human EW-11 cell growth in a cell viability assay.

NB10 = type: functional, cell-based
Description: SANGER: Inhibition of human NB10 cell growth in a cell viability assay.

NCI-H1770 = type: functional, cell-based
Description: SANGER: Inhibition of human NCI-H1770 cell growth in a cell viability assay.

MPP-89 = type: functional, cell-based
Description: SANGER: Inhibition of human MPP-89 cell growth in a cell viability assay.

COLO-684 = type: functional, cell-based
Description: SANGER: Inhibition of human COLO-684 cell growth in a cell viability assay.

LNCaP-Clone-FGC = type: functional, cell-based
Description: SANGER: Inhibition of human LNCaP-Clone-FGC cell growth in a cell viability assay.

CO[C@@]12[C@H](COC(N)=O)C3=C(C(=O)C(C)=C(N)C3=O)N1C[C@@H]1N[C@@H]12 [MITOMYCIN]
IC50 (RH-1): 49.6 nM | IC50 (NCI-H23): 1210 nM | IC50 (COLO-668): < 0.0625 µM | IC50 (LAMA-84): 642 nM | IC50 (ATN-1): 17.4 nM | IC50 (SH-4): 387 nM | IC50 (A704): 2380 nM | IC50 (SW872): < 62.5 nM | IC50 (MHH-NB-11): 193 nM | IC50 (SNU1): 156 nM | IC50 (COR-L88): 319 nM | IC50 (HDLM-2): 1460 nM | IC50 (QIMR-WIL): 120 nM | IC50 (ES8): < 62.5 nM | IC50 (EW-3): 61.9 nM | IC50 (HEL): 35.8 nM | IC50 (IST-MEL1): < 0.0625 µM | IC50 (COLO-824): 1440 nM | IC50 (ES6): 0.746 µM | IC50 (AM-38): 221 nM | IC50 (TGBC1TKB): 1210 nM | IC50 (no-10): 300 nM | IC50 (DOHH-2): 93.8 nM | IC50 (SHP77): 1380 nM | IC50 (HD-MY-Z): 640 nM | IC50 (KE-37): < 62.5 nM | IC50 (KNS-81-FD): 1590 nM | IC50 (TE-1): 0.165 µM | IC50 (NEC8): 187 nM | IC50 (KU812 cell line): 150 nM | IC50 (EW-13): 52.5 nM | IC50 (NCI-H747): 412 nM | IC50 (HCC2218): 589 nM | IC50 (ETK-1): 108 nM | IC50 (SCH): > 16 µM | IC50 (COLO-800): 78.7 nM | IC50 (D-263MG): 540 nM | IC50 (TE-12): 190 nM | IC50 (K5): 1780 nM | IC50 (A498): > 16000 nM | IC50 (J-RT3-T3-5): 186 nM | IC50 (Lu-65): 1010 nM | IC50 (no-11): 7.74 µM | IC50 (IST-MES1): 4150 nM | IC50 (HAL-01): 15.7 nM | IC50 (SW684): > 16000 nM | IC50 (EKVX): 893 nM | IC50 (TE-5): 132 nM | IC50 (NCI-H69): 1.68 µM | IC50 (U-87 MG): 1270 nM | IC50 (SK-MEL-2): 3.97 µM | IC50 (SF-126): 1410 nM | IC50 (EW-16): < 62.5 nM | IC50 (GI-1): 35.2 nM | IC50 (NOS-1): 1500 nM | IC50 (GAK): 596 nM | IC50 (SBC-1): 0.448 µM | IC50 (KM-H2): 130 nM | IC50 (SW 954): 44.9 nM | IC50 (C2BBe1): 9.28 µM | IC50 (EW-11): 513 nM | IC50 (NB10): 81.7 nM | IC50 (NCI-H1770): 343 nM | IC50 (MPP-89): 991 nM | IC50 (COLO-684): 799 nM | IC50 (LNCaP-Clone-FGC): 450 nM

CC(C)=CC[C@@H](O)C1=CC(=O)c2c(O)ccc(O)c2C1=O [SHIKONIN]
IC50 (RH-1): 720 nM | IC50 (NCI-H23): > 16000 nM | IC50 (COLO-668): 6.2 µM | IC50 (LAMA-84): 1210 nM | IC50 (ATN-1): 849 nM | IC50 (SH-4): 371 nM | IC50 (A704): 2700 nM | IC50 (SW872): 367 nM | IC50 (MHH-NB-11): 486 nM | IC50 (SNU1): 1600 nM | IC50 (COR-L88): > 16000 nM | IC50 (HDLM-2): > 16000 nM | IC50 (QIMR-WIL): 182 nM | IC50 (ES8): 778 nM | IC50 (EW-3): 722 nM | IC50 (HEL): 2040 nM | IC50 (IST-MEL1): 15 µM | IC50 (COLO-824): 715 nM | IC50 (ES6): 7.88 µM | IC50 (AM-38): 96.3 nM | IC50 (TGBC1TKB): 1430 nM | IC50 (no-10): 290 nM | IC50 (DOHH-2): 706 nM | IC50 (SHP77): 446 nM | IC50 (HD-MY-Z): 470 nM | IC50 (KE-37): 244 nM | IC50 (KNS-81-FD): 1080 nM | IC50 (TE-1): 15.8 µM | IC50 (NEC8): 840 nM | IC50 (KU812 cell line): < 62.5 nM | IC50 (EW-13): 267 nM | IC50 (NCI-H747): 441 nM | IC50 (HCC2218): 496 nM | IC50 (ETK-1): 2450 nM | IC50 (SCH): > 16 µM | IC50 (COLO-800): > 16000 nM | IC50 (D-263MG): 2230 nM | IC50 (TE-12): 2340 nM | IC50 (K5): 734 nM | IC50 (A498): 81.9 nM | IC50 (J-RT3-T3-5): 2090 nM | IC50 (Lu-65): > 16000 nM | IC50 (no-11): 0.805 µM | IC50 (IST-MES1): 1700 nM | IC50 (HAL-01): 196 nM | IC50 (SW684): 777 nM | IC50 (EKVX): 3670 nM | IC50 (TE-5): 1000 nM | IC50 (NCI-H69): 6.71 µM | IC50 (U-87 MG): 1280 nM | IC50 (SK-MEL-2): 6.33 µM | IC50 (SF-126): 773 nM | IC50 (EW-16): 299 nM | IC50 (GI-1): 568 nM | IC50 (NOS-1): > 16000 nM | IC50 (GAK): 1040 nM | IC50 (SBC-1): 12.1 µM | IC50 (KM-H2): 1040 nM | IC50 (SW 954): 467 nM | IC50 (C2BBe1): 0.756 µM | IC50 (EW-11): 447 nM | IC50 (NB10): 1340 nM | IC50 (NCI-H1770): 243 nM | IC50 (MPP-89): 857 nM | IC50 (COLO-684): 401 nM | IC50 (LNCaP-Clone-FGC): > 16000 nM
